Results taken from ChEMBL document CHEMBL5126582, “Discovery of (2-(pyrrolidin-1-yl)thieno[3,2-d]pyrimidin-4-yl)(3,4,5-trimethoxyphenyl)methanone as a novel potent tubulin depolymerizing and vascular disrupting agent” (Eur J Med Chem, 2022).

Legend:
A549 = test: cells; conditions: Homo sapiens, A549, 48 h
Description: Antiproliferative activity against human A549 cells assessed as reduction in cell viability incubated for 48 hrs by MTS assay

HCT-116 = test: Antiproliferative activity against human HCT-116 cells assessed as reduction in cell viability incubated for 48 hrs by MTS assay; assay type: functional, cell-based; conditions: HCT-116, 48 h
HL-60 = test: Antiproliferative activity against human HL-60 cells assessed as reduction in cell viability incubated for 48 hrs by MTS assay; assay type: functional, cell-based; conditions: HL-60, 48 h
HeLa = test: Antiproliferative activity against human HeLa cells assessed as reduction in cell viability incubated for 48 hrs by MTS assay; assay type: functional, cell-based
[1] = Metabolic stability in rat liver microsomes assessed as intrinsic clearance incubated for 5 mins in presence of NADPH by HPLC analysis; assay type: ADME, Microsome; conditions: read-out: CLH
[2] = Antiproliferative activity against human A549/PTX cells assessed as reduction in cell viability measured for 48 hrs by MTS assay; assay type: functional, cell-based
[3] = Resistance index, ratio of IC50 for antiproliferative activity against human A549/PTX cells assessed as reduction in cell viability to IC50 for antiproliferative activity against human A549 cells assessed as reduction in cell viability; assay type: functional

Compound	IC50 (A549) [µM]	IC50 (HCT-116) [µM]	IC50 (HL-60) [µM]	IC50 (HeLa) [µM]	microsomal CLint [1] [µL/min/mg]	IC50 [2] [µM]	Ratio IC50 [3]
COc1cc(C(=O)c2nc(N3CCNCC3)nc3ccsc23)cc(OC)c1OC	> 10	> 10	> 10	> 10	–	–	–
COc1cc(C(=O)c2nc(N3CCCC3)nc3cc(C)sc23)cc(OC)c1OC	0.452	1.74	0.122	0.194	–	–	–
COc1cc(C(=O)c2nc(N(C)C3CCCCC3)nc3ccsc23)cc(OC)c1OC	> 10	> 10	> 10	> 10	–	–	–
O=C(O)Cc1ccccc1Nc1c(Cl)cccc1Cl [DICLOFENAC]	–	–	–	–	64.2	–	–
COc1cc(OC)cc(C(=O)c2nc(N3CCCC3)nc3ccsc23)c1	4.34	0.616	0.934	4.38	–	–	–
CC(=O)O[C@H]1C(=O)[C@@]2(C)[C@H]([C@H](OC(=O)c3ccccc3)[C@]3(O)C[C@H](OC(=O)[C@H](O)[C@@H](NC(=O)c4ccccc4)c4ccccc4)C(C)=C1C3(C)C)[C@]1(OC(C)=O)CO[C@@H]1C[C@@H]2O [PACLITAXEL]	0.0011	–	–	–	–	1.02	964
COc1cc(C(=O)c2nc(N3CCN(C)CC3)nc3ccsc23)cc(OC)c1OC	> 10	> 10	> 10	> 10	–	–	–
COc1cc(C(=O)c2nc(Nc3cccc(C)c3)nc3ccsc23)cc(OC)c1OC	–	0.151	–	0.053	–	–	–
COc1cc(C(=O)c2nc(N3CCCCC3)nc3ccsc23)cc(OC)c1OC	> 10	> 10	1.12	1.2	–	–	–
COc1cccc(C(=O)c2nc(N3CCCC3)nc3ccsc23)c1	> 10	> 10	9.57	> 10	–	–	–
COc1cc(C(=O)c2nc(Cl)nc3ccsc23)cc(OC)c1OC	0.954	0.225	0.889	1.14	–	–	–
COc1ccc(C(=O)c2nc(N3CCCC3)nc3ccsc23)cc1OC	> 10	> 10	> 10	> 10	–	–	–
COc1ccc(C(=O)c2nc(N3CCCC3)nc3ccsc23)cc1	> 10	> 10	> 10	> 10	–	–	–
COc1cc(C(=O)c2nc(NC3CCCCC3)nc3ccsc23)cc(OC)c1OC	> 10	> 10	2.46	> 10	–	–	–
COc1cc(C(=O)c2nc(N(C)C)nc3ccsc23)cc(OC)c1OC	> 10	> 10	0.536	1.22	–	–	–
COc1cc(C(=O)c2nc(SC)nc3ccsc23)cc(OC)c1OC	> 10	> 10	0.285	> 10	–	–	–
COc1cc(C(=O)c2nc(NC3CCC3)nc3ccsc23)cc(OC)c1OC	2.4	0.293	0.651	0.933	–	–	–
